For 51 compounds, IL-1β % inhibition results are on record in patent publication US7297700B2, “Bicycloheteroaryl compounds as P2X7 modulators and uses thereof” (Renovis, Inc., priority 2005, dated 2007).

One experiment relates to IL-1β release from THP-1 cells. The experiment can be described thus: IL-1β Release Assay (Alternate Method), THP-1 cells. It counts as cell-based, human. The conditions noted are these: at 0.3 μM; THP-1 cells. The essentials: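 THP-1 cells differentiated 16 h with 100 ng/mL LPS plus 100 ng/mL IFN-γ, reprimed 2 h with 100 ng/mL LPS, pretreated 30 min with compound, then challenged 45 min with 250 uM BzATP (final). Supernatant IL-1β quantified by ELISA; percent inhibition from background-adjusted levels versus untreated cells.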
On to `CC12CC3CC(C)(C1)CC(CC(=O)Nc1ncnc4c1CCN(C(=O)C1CCCCC1)C4)(C3)C2` [Compound 386], for which the IL-1β % inhibition result is given as “++ (compound exhibited 25-50% inhibition at 0.3 μM)”.

Turning to `COc1ccc(C(=O)N2CCc3c(ncnc3NC(=O)CC34CC5CC(CC(C5)C3)C4)C2)cc1F` [Compound 310], the IL-1β % inhibition result is listed as “+++ (compound exhibited 50-75% inhibition at 0.3 μM)”.

`O=C(CC12CC3CC(CC(C3)C1)C2)Nc1ncnc2c1CCN(S(=O)(=O)c1cccc(F)c1)C2` [Compound 215]: the IL-1β % inhibition result is recorded as “+++ (compound exhibited 50-75% inhibition at 0.3 μM)”.

As for `COc1ccc(S(=O)(=O)N2CCc3c(ncnc3NC(=O)CC34CC5CC(CC(C5)C3)C4)C2)c(OC)c1` [Compound 197], the IL-1β % inhibition result was “++++ (compound exhibited 75% or greater inhibition at 0.3 μM)”.

Consider `O=C(NCCc1ccccc1Cl)c1ncnc2c1CCN(Cc1ccccc1)C2` [Compound 1], for which the IL-1β % inhibition result is reported as “+ (compound exhibited 0-25% inhibition at 0.3 μM)”.

Turning to `CCCCc1nc(CN2CCc3c(ncnc3NC(=O)CC34CC5CC(CC(C5)C3)C4)C2)c[nH]1` [Compound 80], the IL-1β % inhibition result is “++ (compound exhibited 25-50% inhibition at 0.3 μM)”.

Regarding `O=C(CC1CCCCCC1)Nc1ncnc2c1CCN(Cc1ccc(F)cc1)C2` [Compound 130], the IL-1β % inhibition entry is “+ (compound exhibited 0-25% inhibition at 0.3 μM)”.

Turning to `O=C(CC1CCCCCC1)Nc1ncnc2c1CCN(CCc1ccccc1)C2` [Compound 129], the IL-1β % inhibition entry is “+ (compound exhibited 0-25% inhibition at 0.3 μM)”.

For the compound `O=C(CC12CC3CC(CC(C3)C1)C2)Nc1ncnc2c1CCN(C(=O)CC1CCCC1)C2` [Compound 263], the IL-1β % inhibition result is on record as “++++ (compound exhibited 75% or greater inhibition at 0.3 μM)”.

As for `O=C(CC1CCCCCC1)Nc1ncnc2c1CCN(Cc1cccnc1)C2` [Compound 93], the IL-1β % inhibition entry is listed as “+ (compound exhibited 0-25% inhibition at 0.3 μM)”.

For `O=C(CC12CC3CC(CC(C3)C1)C2)Nc1ncnc2c1CCN(Cc1ccc(F)cc1C(F)(F)F)C2` [Compound 107], the IL-1β % inhibition entry is “+ (compound exhibited 0-25% inhibition at 0.3 μM)”.

Take `O=C(CC12CC3CC(CC(C3)C1)C2)Nc1ncnc2c1CCN(Cc1ccc(Cl)c(C(F)(F)F)c1)C2` [Compound 325]: the IL-1β % inhibition entry is reported as “+ (compound exhibited 0-25% inhibition at 0.3 μM)”.

As for `Cc1c(S(=O)(=O)N2CCc3c(ncnc3NC(=O)CC34CC5CC(CC(C5)C3)C4)C2)cnn1-c1ccccc1` [Compound 160], the IL-1β % inhibition result is listed as “++++ (compound exhibited 75% or greater inhibition at 0.3 μM)”.

In the case of `O=C(CC12CC3CC(CC(C3)C1)C2)Nc1ncnc2c1CCN(C(=O)C1CCCC1)C2` [Compound 238], the IL-1β % inhibition result is reported as “++++ (compound exhibited 75% or greater inhibition at 0.3 μM)”.

As for `CC(c1ccc2c(c1)OCCO2)N1CCc2c(ncnc2NC(=O)CC23CC4CC(CC(C4)C2)C3)C1` (stereo not drawn) [Compound 317], the IL-1β % inhibition entry is “+ (compound exhibited 0-25% inhibition at 0.3 μM)”.

On to `O=C(NCC12CC3CC(CC(C3)C1)C2)c1ncnc2c1CCN(Cc1cccc(F)c1)C2` [Compound 316], for which the IL-1β % inhibition entry is listed as “+ (compound exhibited 0-25% inhibition at 0.3 μM)”.

With `COc1ccc(CN2CCc3c(ncnc3NC(=O)CC34CC5CC(CC(C5)C3)C4)C2)cc1F` [Compound 119], the IL-1β % inhibition result is given as “++ (compound exhibited 25-50% inhibition at 0.3 μM)”.

With `CC(C)(C(=O)Nc1ncnc2c1CCN(Cc1ccccc1Cl)C2)C12CC3CC(CC(C3)C1)C2` [Compound 348], the IL-1β % inhibition result is on record as “+ (compound exhibited 0-25% inhibition at 0.3 μM)”.

`O=C(NCC1CCCCC1)c1ncnc2c1CCN(Cc1ccc(Cl)cc1)C2` [Compound 51]: the IL-1β % inhibition entry is “+ (compound exhibited 0-25% inhibition at 0.3 μM)”.

For the compound `COc1ccc(CN2CCc3c(ncnc3C(=O)NCC3CCCCC3)C2)cc1` [Compound 54], the IL-1β % inhibition entry is on record as “+ (compound exhibited 0-25% inhibition at 0.3 μM)”.

On to `O=C(CC12CC3CC(CC(C3)C1)C2)Nc1ncnc2c1CCN(S(=O)(=O)Cc1cc(C(F)(F)F)cc(C(F)(F)F)c1)C2` [Compound 182], for which the IL-1β % inhibition entry is “+++ (compound exhibited 50-75% inhibition at 0.3 μM)”.

Take `Cc1ccc(Cl)c(CN2CCc3c(ncnc3NC(=O)CC34CC5CC(CC(C5)C3)C4)C2)c1F` [Compound 87]: the IL-1β % inhibition result was “++ (compound exhibited 25-50% inhibition at 0.3 μM)”.

For the compound `O=C(CC12CC3CC(CC(C3)C1)C2)Nc1ncnc2c1CCN(S(=O)(=O)Cc1ccc(C(F)(F)F)cc1)C2` [Compound 183], the IL-1β % inhibition entry is “++ (compound exhibited 25-50% inhibition at 0.3 μM)”.

Consider `Cc1nc[nH]c1CN1CCc2c(ncnc2NC(=O)CC23CC4CC(CC(C4)C2)C3)C1` [Compound 81], for which the IL-1β % inhibition result is given as “+++ (compound exhibited 50-75% inhibition at 0.3 μM)”.

On to `O=C(CC12CC3CC(CC(C3)C1)C2)Nc1ncnc2c1CCN(Cc1ccncc1)C2` [Compound 43], for which the IL-1β % inhibition entry is listed as “+ (compound exhibited 0-25% inhibition at 0.3 μM)”.

As to `Cc1cc(C(=O)N2CCc3c(ncnc3NC(=O)CC34CC5CC(CC(C5)C3)C4)C2)c(C)o1` [Compound 293], the IL-1β % inhibition entry is given as “+++ (compound exhibited 50-75% inhibition at 0.3 μM)”.

With `CC(C)CC(=O)N1CCc2c(ncnc2NC(=O)CC23CC4CC(CC(C4)C2)C3)C1` [Compound 255], the IL-1β % inhibition result is listed as “++ (compound exhibited 25-50% inhibition at 0.3 μM)”.

For `O=C(c1cccc(F)c1)N1CCc2c(ncnc2NC(=O)C23CC4CC(CC(C4)C2)C3)C1` [Compound 400], the IL-1β % inhibition result is listed as “+ (compound exhibited 0-25% inhibition at 0.3 μM)”.

On to `Cc1ccccc1CN1CCc2c(ncnc2C(=O)NCC23CC4CC(CC(C4)C2)C3)C1` [Compound 336], for which the IL-1β % inhibition result is “++++ (compound exhibited 75% or greater inhibition at 0.3 μM)”.

On to `N#Cc1ccc(C(=O)N2CCc3c(ncnc3NC(=O)CC34CC5CC(CC(C5)C3)C4)C2)cc1` [Compound 257], for which the IL-1β % inhibition result is recorded as “+ (compound exhibited 0-25% inhibition at 0.3 μM)”.

In the case of `O=C(NCCc1ccccc1)c1ncnc2c1CCNC2` [Compound 3], the IL-1β % inhibition entry was “+ (compound exhibited 0-25% inhibition at 0.3 μM)”.

As for `O=C(CC12CC3CC(CC(C3)C1)C2)Nc1ncnc2c1CCN(S(=O)(=O)c1ccccc1Cl)C2` [Compound 192], the IL-1β % inhibition entry is listed as “+++ (compound exhibited 50-75% inhibition at 0.3 μM)”.

For `CS(=O)(=O)N1CCc2c(ncnc2NC(=O)CC23CC4CC(CC(C4)C2)C3)C1` [Compound 142], the IL-1β % inhibition result is reported as “+++ (compound exhibited 50-75% inhibition at 0.3 μM)”.

Regarding `COc1cccc(CN2CCc3c(ncnc3C(=O)NCC34CC5CC(CC(C5)C3)C4)C2)c1` [Compound 335], the IL-1β % inhibition result was “++ (compound exhibited 25-50% inhibition at 0.3 μM)”.

As for `CC(C)(C(=O)Nc1ncnc2c1CCN(S(=O)(=O)Cc1ccc(Cl)cc1)C2)C12CC3CC(CC(C3)C1)C2` [Compound 357], the IL-1β % inhibition result is on record as “+ (compound exhibited 0-25% inhibition at 0.3 μM)”.

For `COc1ccc(C(=O)N2CCc3c(ncnc3NC(=O)CC34CC5CC(CC(C5)C3)C4)C2)cc1` [Compound 234], the IL-1β % inhibition entry is given as “++ (compound exhibited 25-50% inhibition at 0.3 μM)”.

Still in this experiment, the particulars now being: at 0.3 μM; THP-1 cells, BzATP-stimulated.
With `Cc1ccc(S(=O)(=O)N2CCc3c(ncnc3NC(=O)C34CC5CC(CC(C5)C3)C4)C2)cc1` [Compound 482], the IL-1β % inhibition entry was “++ (compound exhibited 25-50% inhibition at 0.3 μM)”.

On to `O=C(Nc1ncnc2c1CCN(S(=O)(=O)c1ccc(F)c(Cl)c1)C2)C12CC3CC(CC(C3)C1)C2` [Compound 526], for which the IL-1β % inhibition result is given as “++ (compound exhibited 25-50% inhibition at 0.3 μM)”.

`O=C(Nc1ncnc2c1CCN(S(=O)(=O)c1cc(C(F)(F)F)ccc1Cl)C2)C12CC3CC(CC(C3)C1)C2` [Compound 514]: the IL-1β % inhibition result is given as “+ (compound exhibited 0-25% inhibition at 0.3 μM)”.

On to `Cc1ccc(C(=O)N2CCc3c(ncnc3NC(=O)C34CC5CC(CC(C5)C3)C4)C2)cc1` [Compound 461], for which the IL-1β % inhibition entry is “+ (compound exhibited 0-25% inhibition at 0.3 μM)”.

On to `O=C(Nc1ncnc2c1CCN(Cc1cc(Br)ccc1F)C2)C12CC3CC(CC(C3)C1)C2` [Compound 618], for which the IL-1β % inhibition entry is “+ (compound exhibited 0-25% inhibition at 0.3 μM)”.

As to `O=C(Nc1ncnc2c1CCN(Cc1ccc3c(c1)OCO3)C2)C12CC3CC(CC(C3)C1)C2` [Compound 564], the IL-1β % inhibition result is recorded as “++++ (compound exhibited 75% or greater inhibition at 0.3 μM)”.

With `Cc1ccccc1S(=O)(=O)N1CCc2c(ncnc2NC(=O)C23CC4CC(CC(C4)C2)C3)C1` [Compound 533], the IL-1β % inhibition result is on record as “+++ (compound exhibited 50-75% inhibition at 0.3 μM)”.

On to `COc1cccc(CC(=O)N2CCc3c(ncnc3NC(=O)C34CC5CC(CC(C5)C3)C4)C2)c1` [Compound 433], for which the IL-1β % inhibition result is recorded as “++ (compound exhibited 25-50% inhibition at 0.3 μM)”.

With `O=C(c1c(F)cccc1F)N1CCc2c(ncnc2NC(=O)C23CC4CC(CC(C4)C2)C3)C1` [Compound 419], the IL-1β % inhibition entry is “+ (compound exhibited 0-25% inhibition at 0.3 μM)”.

Consider `O=C(c1ccc(C(F)(F)F)cc1)N1CCc2c(ncnc2NC(=O)C23CC4CC(CC(C4)C2)C3)C1` [Compound 415], for which the IL-1β % inhibition result is “+ (compound exhibited 0-25% inhibition at 0.3 μM)”.

On to `O=C(c1cccc(Cl)c1)N1CCc2c(ncnc2NC(=O)C23CC4CC(CC(C4)C2)C3)C1` [Compound 425], for which the IL-1β % inhibition entry is reported as “+ (compound exhibited 0-25% inhibition at 0.3 μM)”.

On to `Cc1ccc(CN2CCc3c(ncnc3NC(=O)C34CC5CC(CC(C5)C3)C4)C2)cc1` [Compound 602], for which the IL-1β % inhibition result is “++ (compound exhibited 25-50% inhibition at 0.3 μM)”.

For `COc1cc(OC)cc(C(=O)N2CCc3c(ncnc3NC(=O)C34CC5CC(CC(C5)C3)C4)C2)c1` [Compound 418], the IL-1β % inhibition entry is recorded as “++ (compound exhibited 25-50% inhibition at 0.3 μM)”.

As to `O=C(Nc1ncnc2c1CCN(S(=O)(=O)Cc1cccc(C(F)(F)F)c1)C2)C12CC3CC(CC(C3)C1)C2` [Compound 520], the IL-1β % inhibition result is “++ (compound exhibited 25-50% inhibition at 0.3 μM)”.

With `O=C(C1COc2ccccc2C1)N1CCc2c(ncnc2NC(=O)C23CC4CC(CC(C4)C2)C3)C1` (racemic) [Compound 477], the IL-1β % inhibition entry is “++ (compound exhibited 25-50% inhibition at 0.3 μM)”.
